Data published in patent US20140227173A1, “CANCER TREATMENT WITH GAMMA-SECRETASE INHIBITORS” (The Johns Hopkins University, priority 2006, published 2014).

Tested on: Notch pathway target Hes1
Assay: Hes1 mRNA and protein levels (RT PCR, Western blot)
Format: cell-based
Experimental: The DAOY, PFSK, D283 and D425 Med cell lines were obtained from the American Type Culture Collection. The low-passage MB line MB2 was derived from a tumor resected at Johns Hopkins Hospital. For treatment studies, cell were plated and allowed to grow overnight in MEM (Invitrogen, Carlsbad, Calif.) containing 10% FBS, then media was replaced the next morning with low serum (0.5% FBS) MEM containing GSI dissolved in DMSO. RNA and protein extractions, and all cell-based assays, were performed 48 hours after drug application unless otherwise noted. All experiments with error bars were performed in triplicate and shown as mean values with standard error unless otherwise noted. Cell mass was measured using CellTITER assays according to the manufacturer's instructions (Promega, Madison, Wis.). Cell number and viability were assessed using the Guava PCA and Viacount reagent according to instructions (Guava Technologies, Heyward, Calif.). Soft agar assays were performed as previously described (15) and scored either manually after 4 weeks or using as automated reader after 6 weeks. […] Soft agar assays were performed as previously described, with colonies counted using an automated reader (15).
Quantitative RT PCR for Notch1, Notch2 and Hes1 was performed as previously described (29), with all reactions normalized to actin (Applied Biosystems, Foster City, Calif.). […]

O=S(=O)(NC1C2CCC1Cc1ccccc1C2)c1cccs1 (stereo not drawn) [GSI-18, [11-endo]-N-(5,6,7,8,9,10-hexahydro-6,9-methanobenzo[α][8]annulen-11-yl)-thiophene-2-sulfonamide]
reduction of mRNA and protein levels of Hes1 (2 μM, after 48 hours): over 70% | levels that did not affect Hes1 mRNA levels (data not shown): lower than 0.4 μM
